Entries after “also recorded” stand apart in the source; their conditions may differ.
Tests used:
PDI = PDI (Homo sapiens, UniProt P07237); experiment: PDI activity assay; format: biochemical
From the text: FIG. 17(A-F) is an exemplary embodiment of identification of novel ERO1α inhibitors by high throughput screening in accordance with the present disclosure. FIG. 17A: A scheme of an ERO1α activity assay. FIG. 17B: Screening of chemical libraries in the ERO1α activity assay. FIG. 17C: The inhibitory effect of selected compounds on ERO1α activity. FIG. 17D: The inhibitory effect of selected compounds on PDI activity. FIG. 17E: The inhibitory effect of selected compounds on H2O2 activity. FIG. 17F: The inhibitory effect of selected compounds on thiol-reacting activity. The data represent the mean±SD (n=3). *P<0.05, **P<0.01, ***P<0.001, and ****P<0.0001 vs. vehicle control, Student's t-test.
To identify a novel ERO1α inhibitor, 5800 compounds were screened using an ERO1α activity assay (FIG. 17A and FIG. 17B). […] The selected compounds were further tested in assays measuring PDI, antioxidant, and thiol-reacting activities (FIG. 17D through FIG. 17F). […] B12 inhibited P-selectin exposure and αIIbβ3 activation in agonist-activated mouse and human platelets in a concentration-dependent manner (FIG. 18B through FIG. 18E).

platelets [1] = experiment: Platelet activation and aggregation, platelet source not stated; format: cell-based; details: 5-10 microM
From the text: As described herein, small molecule ERO1α inhibitors were identified by performing a high throughput screen using a ChemDiv library. […] Furthermore, intravenous injection of B112-5 reduced the infarct volume in a mouse model of ischemic stroke.

[2] = target: T1, MAO-A (monoamine oxidase A) (Homo sapiens, UniProt P21397); experiment: MAO-A activity assay; format: biochemical
T1 sequence (P21397 1-527): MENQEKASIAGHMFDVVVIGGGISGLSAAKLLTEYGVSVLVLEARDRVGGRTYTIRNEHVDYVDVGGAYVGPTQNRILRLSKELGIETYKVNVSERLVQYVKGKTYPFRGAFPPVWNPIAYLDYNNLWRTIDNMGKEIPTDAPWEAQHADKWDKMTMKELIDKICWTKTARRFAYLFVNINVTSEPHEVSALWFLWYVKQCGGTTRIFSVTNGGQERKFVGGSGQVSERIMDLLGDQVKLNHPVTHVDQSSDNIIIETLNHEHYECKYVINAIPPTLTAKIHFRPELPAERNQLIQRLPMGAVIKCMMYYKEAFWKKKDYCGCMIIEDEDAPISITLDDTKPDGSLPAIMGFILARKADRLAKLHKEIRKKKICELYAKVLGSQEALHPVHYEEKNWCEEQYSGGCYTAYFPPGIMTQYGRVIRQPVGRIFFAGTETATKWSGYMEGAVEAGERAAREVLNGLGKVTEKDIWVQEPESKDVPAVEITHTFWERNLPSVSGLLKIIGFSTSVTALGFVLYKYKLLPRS

ERO1α = target: T2, ERO1α (Homo sapiens, UniProt Q96HE7); details: from studies; cited from earlier work
T2 sequence (Q96HE7 24-468): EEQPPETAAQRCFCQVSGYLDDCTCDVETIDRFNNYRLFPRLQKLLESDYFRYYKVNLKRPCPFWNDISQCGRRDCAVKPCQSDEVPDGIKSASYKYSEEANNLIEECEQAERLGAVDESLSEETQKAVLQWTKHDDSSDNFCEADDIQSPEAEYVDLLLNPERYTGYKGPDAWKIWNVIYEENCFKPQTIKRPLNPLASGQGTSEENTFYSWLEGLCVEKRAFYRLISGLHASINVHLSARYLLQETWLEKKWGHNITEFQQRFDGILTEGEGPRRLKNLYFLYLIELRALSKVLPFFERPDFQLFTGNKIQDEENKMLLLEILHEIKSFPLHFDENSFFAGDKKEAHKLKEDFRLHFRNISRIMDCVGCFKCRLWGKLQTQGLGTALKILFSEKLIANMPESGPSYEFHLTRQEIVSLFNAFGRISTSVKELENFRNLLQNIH

platelets [3] = details: 10 to 33 μM, recent study; cited from earlier work

PDI, sequence (P07237 18-508, species assumed): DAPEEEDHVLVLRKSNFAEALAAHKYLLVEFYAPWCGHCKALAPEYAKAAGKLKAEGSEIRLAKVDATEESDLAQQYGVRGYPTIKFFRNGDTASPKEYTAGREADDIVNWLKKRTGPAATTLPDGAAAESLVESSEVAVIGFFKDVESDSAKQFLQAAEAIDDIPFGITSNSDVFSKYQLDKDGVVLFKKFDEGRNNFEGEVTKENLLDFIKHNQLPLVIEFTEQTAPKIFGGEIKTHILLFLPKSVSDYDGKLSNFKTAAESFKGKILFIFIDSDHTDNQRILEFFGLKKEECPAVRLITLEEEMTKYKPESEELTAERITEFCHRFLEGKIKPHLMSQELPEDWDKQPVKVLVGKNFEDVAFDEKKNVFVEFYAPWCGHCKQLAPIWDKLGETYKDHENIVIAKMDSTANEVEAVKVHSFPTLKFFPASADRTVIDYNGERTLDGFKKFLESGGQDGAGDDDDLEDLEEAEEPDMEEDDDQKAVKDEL

| SMILES | PDI inhibition at 100 μM (%) (PDI; 100 μM) | effect on PDI activity (PDI; at or up to 100 μM) | platelet activation and aggregation (platelets [1]) | effect on MAO-A activity ([2]; 10 μM) | inhibition of MAO-A activity ([2]; 30 μM) | MAO-A inhibition at 100 μM (%) ([2]; 100 μM) | IC50 (ERO1α) | thrombin-induced platelet aggregation (platelets [3]) |
| --- | --- | --- | --- | --- | --- | --- | --- | --- |
| O=C(CSc1nc(O)cc(O)n1)N1c2ccccc2Sc2ccccc21 [B12-5] | 8.2 ± 2% | minimal effect; also recorded: did not affect | significantly inhibited | without affecting | 30% | 50.7 ± 9% |  |  |
| O=C(O)c1cc(N2N=C(C(F)(F)F)/C(=C/c3ccc(-c4ccccc4)o3)C2=O)ccc1Cl [EN460] |  |  |  |  |  |  | 1900 nM | significantly blocks |
